The values below come from patent US20220202739A1, “ENDOCANNABINOID MIMETIC AND ANTI-INFLAMMATORY COMPOUND CONTAINING COMPOSITIONS, METHODS OF PREPARATION AND USES THEREOF” (priority 2019, published 2022).

Assay [1] has as its system CERS3. Nature of the assay: Gene expression custom microarray, pooled keratinocyte line (Example 3): CERS3. It is filed as cell-based, human. To be noted: pooled keratinocytes, 20 ppm, 24 hr. The method, then:
(§1) Cell cultures: Received and began culture of pooled keratinocyte line from Promocell (C-12006; Lot #448Z026). Cells were seeded into a 75 cm2 flask and 2 6 well dishes for expansion and exposure per manufacturer's protocol using Keratinocyte Growth Medium (C2011B), Keratinocyte Supplement Mix (C39016) and CaCl (C34005). 2 ml of prepared solution were added to each of the 6 wells and 7 ml was added to the 75 cm2 flask.
(§2) Experimental phase: When the appropriate quantity of cells were grown, they were detached as described above, but at the final step were seeded into each well of one or more 6 well dishes. Each well received 2 ml of the cells suspended in suspension so they were seeded equally. The dishes were returned to the incubator until 85-95% confluency is reached.
(§3) It was at this stage that all wells were rinsed in PBS after aspirating the growth media. The compound(s) to be tested were previously mixed into a suitable solvent (e.g., DMSO or ethanol) that can be diluted to the desired concentration of test compound (10 μl) in the culture wells without exceeding maximum solvent concentrations and adversely effecting cell viability, and mixed with Basal Keratinocyte Media. NOTE: Standard maximum levels of solvent are 0.1% for DMSO and 0.5% for ETOH. The concentration for each tested compound/natural extract is generally listed in the left-hand column of Table 4. For certain compositions (e.g., compositions 15 and 16), other concentrations were used and are noted in the body of Table 4.
(§4) Every 2 wells on the 6 well plate served as a biological replicate for the purposes of RNA isolation and genetic expression evaluations making each 6 well dish an n=3 for the test compound contained in the media. […]
(§5) At the end of the 24 hr time period, the plates were removed from the incubator, the test media aspirated, and the cells rinsed with PBS. […] Allow 1 minute for saturation of the membrane and then centrifuge for 2 minutes to complete the RNA elution. • Quantify the quantity of RNA and store at −20 C° until use (no more than 1 month) […]

The subject of assay [2] is JUN. Nature of the assay: Gene expression custom microarray, pooled keratinocyte line (Example 3): JUN. It is filed as cell-based, human. The following applies: pooled keratinocytes, 20 ppm, 24 hr. The method, then:
as §1, §2, §3, §4, §5

As to `CCCCCCCCCCCCCCCC(=O)NCCO` [N-palmitoylethanolamide], in assay [1], the “↑CERS3 gene expression, fold increase or decrease vs untreated cells” value was determined as 2 fold. Also, in assay [2], the “↓JUN gene expression, fold increase or decrease vs untreated cells” value was −1.9 fold.

On to `CC(C)[C@]12O[C@H]1[C@@H]1O[C@]13[C@]1(O[C@H]1C[C@H]1C4=C(CC[C@@]13C)C(=O)OC4)[C@@H]2O` [Triptolide], for which the “↑CERS3 gene expression, fold increase or decrease vs untreated cells” value in assay [1] is −1.5 fold. The “↓JUN gene expression, fold increase or decrease vs untreated cells” value in assay [2] is on record as −4.7 fold.

Turning to `C=C(C)[C@@H]1CCC(C)=C[C@H]1c1c(O)cc(CCCCC)cc1O` [CBD, cannabidiol, reference compound], the “↑CERS3 gene expression, fold increase or decrease vs untreated cells” value in assay [1] turned out to be 1.7 fold. The “↓JUN gene expression, fold increase or decrease vs untreated cells” value in assay [2] came out at 2.7 fold.
